Patent US20210205277A1, “MODULATORS OF THE INTEGRATED STRESS PATHWAY” (Calico Life Sciences LLC, priority 2017, published 2021)

Tested on: HEK293T cells carrying the ATF4 luciferase reporter
Assay: ATF4-Luc assay (in vitro model of VWMD)
Assay type: cell-based
Details: Homo sapiens, HEK-293T; HEK293T cells with ATF4 5'-UTR firefly luciferase reporter; 1 μg/mL tunicamycin; 7 hours; One Glo luminescence
Method: In order to test exemplary compounds of the invention in a cellular context, a stable VWMD cell line was first constructed. The ATF4 reporter was prepared by fusing the human full-length ATF4 5′-UTR (NCBI Accession No. BC022088.2) in front of the firefly luciferase (FLuc) coding sequence lacking the initiator methionine as described in Sidrauski et al (eLife 2013). The construct was used to produce recombinant retroviruses using standard methods and the resulting viral supernatant was used to transduce HEK293T cells, which were then subsequently selected with puromycin to generate a stable cell line.
HEK293T cells carrying the ATF4 luciferase reporter were plated on polylysine coated 384-well plates (Greiner Bio-one) at 30,000 cells per well. Cells were treated the next day with 1 μg/mL tunicamycin and 200 nM of a compound of Formula (I) for 7 hours. Luminescence was measured using One Glo (Promega) as specified by the manufacturer. Cells were maintained in DMEM with L-glutamine supplemented with 10% heat-inactivated FBS (Gibco) and Antibiotic-Antimycotic solution (Gibco).
Table 2 below summarizes the EC50 data obtained using the ATF4-Luc assay for exemplary compounds of the invention.

O=C(COc1ccc(Cl)c(F)c1)NC12CCC(c3nnc(-c4ccc(Cl)c(F)c4)o3)(CC1)[C@H](O)C2 (single isomer, unassigned) [Compound 101] and O=C(COc1ccc(Cl)c(F)c1)NC12CCC(c3nnc(-c4ccc(Cl)c(F)c4)o3)(CC1)[C@@H](O)C2 [Compound 100, 2-(4-chloro-3-fluorophenoxy)-N-{(3S)-4-[5-(4-chloro-3-fluorophenyl)-1,3,4-oxadiazol-2-yl]-3-hydroxybicyclo[2.2.2]octan-1-yl}acetamide] cannot be ordered by EC50: under 10 nM for the first, under 10 nM for the second.

O=C(COc1ccc(Cl)c(F)c1)NC12CCC(c3nnc(-c4ccc(Cl)c(F)c4)o3)(CC1)C[C@H]2O (single isomer, unassigned) [Compound 122] and O=C(COc1ccc(Cl)c(F)c1)NC12CCC(c3nnc(-c4ccc(Cl)c(F)c4)o3)(CC1)C[C@@H]2O (single isomer, unassigned) [Compound 123] cannot be ordered by EC50: under 10 nM for the first, under 10 nM for the second.

O=C(COc1ccc(Cl)c(F)c1)NC12CCC(n3ccc(-c4ccc(Cl)c(F)c4)c3)(CC1)CC2O (stereo not shown) [Compound 102, 2-(4-chloro-3-fluorophenoxy)-N-{4-[3-(4-chloro-3-fluorophenyl)-1H-pyrrol-1-yl]-2-hydroxybicyclo[2.2.2]octan-1-yl}acetamide] and O=C(COc1ccc(Cl)c(F)c1)NC12CCC(n3ccc(-c4ccc(Cl)c(F)c4)c3)(CC1)C[C@@H]2O [Compound 113, 2-(4-chloro-3-fluorophenoxy)-N-{(2S)-4-[3-(4-chloro-3-fluorophenyl)-1H-pyrrol-1-yl]-2-hydroxybicyclo[2.2.2]octan-1-yl}acetamide] cannot be ordered by EC50: under 10 nM for the first, under 10 nM for the second.

First: O=C(COc1ccc(Cl)c(F)c1)NC12CCC(c3nc(-c4ccc(Cl)c(F)c4)no3)(CC1)[C@H](O)C2 [Compound 103, 2-(4-chloro-3-fluorophenoxy)-N-{(3R)-4-[3-(4-chloro-3-fluorophenyl)-1,2,4-oxadiazol-5-yl]-3-hydroxybicyclo[2.2.2]octan-1-yl}acetamide]
Second: O=C(COc1ccc(Cl)c(F)c1)NC12CCC(c3nc(-c4ccc(Cl)c(F)c4)no3)(CC1)[C@@H](O)C2 [Compound 104, 2-(4-chloro-3-fluorophenoxy)-N-{(3S)-4-[3-(4-chloro-3-fluorophenyl)-1,2,4-oxadiazol-5-yl]-3-hydroxybicyclo[2.2.2]octan-1-yl}acetamide]
The EC50 of the first is higher: 10 to 50 nM for the first, under 10 nM for the second.

O=C(COc1ccc(Cl)c(F)c1)NC12CCC(c3nc(-c4ccc(Cl)c(F)c4)no3)(CC1)C(=O)C2 [Compound 105, 2-(4-chloro-3-fluorophenoxy)-N-{4-[3-(4-chloro-3-fluorophenyl)-1,2,4-oxadiazol-5-yl]-3-oxobicyclo[2.2.2]octan-1-yl}acetamide] and O=C(COc1ccc(Cl)c(F)c1)NC12CCC(c3nnc(-c4ccc(Cl)c(F)c4)o3)(CC1)C(=O)C2 [Compound 106, 2-(4-chloro-3-fluorophenoxy)-N-{4-[5-(4-chloro-3-fluorophenyl)-1,3,4-oxadiazol-2-yl]-3-oxobicyclo[2.2.2]octan-1-yl}acetamide] cannot be ordered by EC50: under 10 nM for the first, under 10 nM for the second.

O=C(COc1ccc(Cl)c(F)c1)NC12CCC(c3nnc(-c4ccc(Cl)c(F)c4)o3)(CC1)C(O)C2 (stereo not shown) [Compound 107, 2-(4-chloro-3-fluorophenoxy)-N-{4-[5-(4-chloro-3-fluorophenyl)-1,3,4-oxadiazol-2-yl]-3-hydroxybicyclo[2.2.2]octan-1-yl}acetamide] and O=C(COc1ccc(Cl)c(F)c1)NC12CCC(c3nnc(-c4ccc(Cl)c(F)c4)o3)(CC1)CC2O (stereo not shown) [Compound 108, 2-(4-chloro-3-fluorophenoxy)-N-{4-[5-(4-chloro-3-fluorophenyl)-1,3,4-oxadiazol-2-yl]-2-hydroxybicyclo[2.2.2]octan-1-yl}acetamide] cannot be ordered by EC50: under 10 nM for the first, under 10 nM for the second.

Compared with O=C(COc1ccc(Cl)c(F)c1)NC12CCC(n3ccc(-c4ccc(Cl)cc4)c3)(CC1)CC2O (stereo not shown) [Compound 109, 2-(4-chloro-3-fluorophenoxy)-N-{4-[3-(4-chlorophenyl)-1H-pyrrol-1-yl]-2-hydroxybicyclo[2.2.2]octan-1-yl}acetamide], O=C(COc1ccc(Cl)c(Cl)c1)NC12CCC(n3ccc(-c4ccc(Cl)c(F)c4)c3)(CC1)C[C@@H]2O [Compound 115, N-{(2S)-4-[3-(4-chloro-3-fluorophenyl)-1H-pyrrol-1-yl]-2-hydroxybicyclo[2.2.2]octan-1-yl}-2-(3,4-dichlorophenoxy)acetamide] is lower in EC50: 10 to 50 nM for the first, under 10 nM for the second. The second is the more potent here.

O=C(COc1ccc(Cl)c(F)c1)NC12CCC(c3ncc(-c4ccc(Cl)cc4)[nH]3)(CC1)[C@@H](O)C2 [Compound 110, 2-(4-chloro-3-fluorophenoxy)-N-{(3S)-4-[5-(4-chlorophenyl)-1H-imidazol-2-yl]-3-hydroxybicyclo[2.2.2]octan-1-yl}acetamide] and O=C(COc1ccc(Cl)c(F)c1)NC12CCC(c3ncc(-c4ccc(Cl)cc4)[nH]3)(CC1)[C@H](O)C2 [Compound 118, 2-(4-chloro-3-fluorophenoxy)-N-{(3R)-4-[5-(4-chlorophenyl)-1H-imidazol-2-yl]-3-hydroxybicyclo[2.2.2]octan-1-yl}acetamide] cannot be ordered by EC50: under 10 nM for the first, under 10 nM for the second.

First: O=C(COc1ccc(Cl)c(F)c1)NC12CCC(c3nc(-c4ccc(Cl)c(F)c4)no3)(CC1)CC2=O [Compound 111, 2-(4-chloro-3-fluorophenoxy)-N-{4-[3-(4-chloro-3-fluorophenyl)-1,2,4-oxadiazol-5-yl]-2-oxobicyclo[2.2.2]octan-1-yl}acetamide]
Second: O=C(COc1ccc(Cl)c(F)c1)NC12CCC(n3nccc3-c3ccc(Cl)c(F)c3)(CC1)C[C@@H]2O [Compound 112, 2-(4-chloro-3-fluorophenoxy)-N-{(2S)-4-[5-(4-chloro-3-fluorophenyl)-1H-pyrazol-1-yl]-2-hydroxybicyclo[2.2.2]octan-1-yl}acetamide]
The EC50 of the first is higher: over 2000 nM for the first, 500 to 2000 nM for the second. The second is the more potent here.

O=C(COc1ccc(Cl)c(F)c1)NC12CCC(c3ncc(-c4ccc(Cl)cc4)o3)(CC1)[C@H](O)C2 [Compound 114, 2-(4-chloro-3-fluorophenoxy)-N-{(3R)-4-[5-(4-chlorophenyl)-1,3-oxazol-2-yl]-3-hydroxybicyclo[2.2.2]octan-1-yl}acetamide] and O=C(COc1ccc(Cl)c(F)c1)NC12CCC(c3ncc(-c4ccc(Cl)c(F)c4)[nH]3)(CC1)[C@@H](O)C2 [Compound 119, 2-(4-chloro-3-fluorophenoxy)-N-{(3S)-4-[5-(4-chloro-3-fluorophenyl)-1H-imidazol-2-yl]-3-hydroxybicyclo[2.2.2]octan-1-yl}acetamide] cannot be ordered by EC50: under 10 nM for the first, under 10 nM for the second.

Compared with O=C(COc1ccc(Cl)c(F)c1)NC12CC(c3ncc(-c4ccc(Cl)c(F)c4)[nH]3)(C1)C2 [Compound 116, 2-(4-chloro-3-fluorophenoxy)-N-{3-[5-(4-chloro-3-fluorophenyl)-1H-imidazol-2-yl]bicyclo[1.1.1]pentan-1-yl}acetamide], Cn1c(-c2ccc(Cl)c(F)c2)cnc1C12CC(NC(=O)COc3ccc(Cl)c(F)c3)(C1)C2 [Compound 117, 2-(4-chloro-3-fluorophenoxy)-N-{3-[5-(4-chloro-3-fluorophenyl)-1-methyl-1H-imidazol-2-yl]bicyclo[1.1.1]pentan-1-yl}acetamide] is higher in EC50: under 10 nM for the first, 10 to 50 nM for the second. The first is the more potent here.

Compared with O=C(NC12CCC(c3nc(-c4cccc(F)c4)no3)(CC1)C(O)C2)c1cc(C(F)F)no1 (stereo not shown) [Compound 120, 3-(difluoromethyl)-N-{4-[3-(3-fluorophenyl)-1,2,4-oxadiazol-5-yl]-3-hydroxybicyclo[2.2.2]octan-1-yl}-1,2-oxazole-5-carboxamide], O=C(NC12CCC(c3nc(-c4ccc(Cl)c(F)c4)no3)(CC1)C(O)C2)c1cc(C(F)F)no1 (stereo not shown) [Compound 121, N-{4-[3-(4-chloro-3-fluorophenyl)-1,2,4-oxadiazol-5-yl]-3-hydroxybicyclo[2.2.2]octan-1-yl}-3-(difluoromethyl)-1,2-oxazole-5-carboxamide] is lower in EC50: over 2000 nM for the first, 500 to 2000 nM for the second. The second is the more potent here.

Compound COc1ncc(-c2nnc(C34CCC(NC(=O)COc5ccc(Cl)c(F)c5)(CC3)C(O)C4)o2)cn1 (stereo not shown) [Compound 124, 2-(4-chloro-3-fluorophenoxy)-N-{2-hydroxy-4-[5-(2-methoxypyrimidin-5-yl)-1,3,4-oxadiazol-2-yl]bicyclo[2.2.2]octan-1-yl}acetamide] has an EC50 of over 2000 nM.
